Test results as given in paper PMC9228592, “Dichloroacetyl Amides of 3,5-Bis(benzylidene)-4-piperidones Displaying Greater Toxicity to Neoplasms than to Non-Malignant Cells” (Medicines, 2022).

Columns and labels:
Assay type in all cases: cell-based, human
[1] = test system: Ca9-22 squamous cell carcinoma cells; assay: Cytotoxicity (MTT, 48 h) against Ca9-22 cells; settings: for CC50: 48 h, MTT, mean ± S.D. of triplicate; for SI (Ca9-22): average CC50 towards HGF, HPLF, HPC divided by CC50 against Ca9-22
Excerpt: (§1) The target cells used in our study were human oral squamous cell carcinoma cell lines Ca9-22 (purchased from RIKEN Cell Bank, Tukuba, RCB-1976), HSC-2 (RCB1945), HSC-3 (RCB1975), HSC-4 (RCB1902), and three human normal oral cells, gingival fibroblast (HGF), periodontal ligament fibroblast (HPLF), and pulp cells (HPC) [established from the first premolar extracted tooth in the lower jaw (because of dysfunctional position or orthodontic treatment) and periodontal tissues of a child, according to the guideline of the Institutional Board of Meikai University Ethics Committee (No. A0808)], after obtaining informed consent from the patients. These cells were incubated for 48 h with the indicated concentrations of test samples or reference compounds sodium dichloroacetate (purchased from Sigma-Aldrich Chemical Company, Saint Louis, MO, USA), 5-fluorouracil (5-FU) from Kyowa (Tokyo, Japan), and doxorubicin (DXR) (St. Louis, MO, USA) and vehicle (DMSO) (0.008, 0.016, 0.031, 0.063, 0.125, 0.25, 0.5, and 1%) in Dulbecco’s Modified Eagle Medium (DMEM) media, which was supplemented with 10% heat-inactivated fetal bovine serum. Cell viability was determined by the MTT method. Cytotoxicity caused by the vehicle (DMSO) was subtracted.
(§2) SI was calculated by dividing the average CC50 value (concentration of the compound to kill 50% of the cells) of the compound towards HGF, HPLF, and HPC cells by the CC50 value of the compound against a specific neoplastic cell line.

[2] = test system: HSC-2 squamous cell carcinoma cells; assay: Cytotoxicity (MTT, 48 h) against HSC-2 cells; settings: for SI (HSC-2): average CC50 towards HGF, HPLF, HPC divided by CC50 against HSC-2
Excerpt: as §1, §2

[3] = test system: HSC-3 squamous cell carcinoma cells; assay: Cytotoxicity (MTT, 48 h) against HSC-3 cells; settings: for CC50: 48 h, MTT, mean ± S.D. of triplicate; for SI (HSC-3): average CC50 towards HGF, HPLF, HPC divided by CC50 against HSC-3
Excerpt: as §1, §2

[4] = test system: HSC-4 squamous cell carcinoma cells; assay: Cytotoxicity (MTT, 48 h) against HSC-4 cells; settings: for CC50: 48 h, MTT, mean ± S.D. of triplicate; for SI (HSC-4): average CC50 towards HGF, HPLF, HPC divided by CC50 against HSC-4
Excerpt: as §1, §2

[5] = Cytotoxicity (MTT, 48 h) against HGF non-malignant cells; settings: human, normal gingival fibroblasts (HGF), mean ± S.D. of triplicate
Excerpt: as §1

[6] = Cytotoxicity (MTT, 48 h) against HPLF non-malignant cells; settings: human, normal periodontal ligament fibroblasts (HPLF), mean ± S.D. of triplicate
Excerpt: as §1

[7] = Cytotoxicity (MTT, 48 h) against HPC non-malignant cells; settings: female, human, normal pulp cells (HPC), mean ± S.D. of triplicate
Excerpt: as §1

[8] = test system: Ca9-22, HSC-2, HSC-3, and HSC-4 cells; assay: Average cytotoxicity, selectivity and PSE over the four carcinoma lines; settings: for Average SI: average of SI over Ca9-22, HSC-2, HSC-3, HSC-4
Excerpt: as §1, §2
PSE reflects both the potencies and differences in cytotoxicity to neoplasms and non-malignant cells. This value was the product of the reciprocal of the average CC50 value of the compounds towards Ca9-22, HSC-2, HSC-3, and HSC-4 cells and the average SI value × 100.

[9] = Average cytotoxicity over the three non-malignant cells; settings: female, human, normal oral cells HGF, HPLF and HPC (average over the three)
Excerpt: as §1

[10] = test system: gingival fibroblast (HGF); assay: Cytotoxicity (MTT, 48 h) against HGF non-malignant cells; settings: mean ± S.D. of triplicate
Excerpt: as §1

[11] = test system: periodontal ligament fibroblast (HPLF); assay: Cytotoxicity (MTT, 48 h) against HPLF non-malignant cells; settings: mean ± S.D. of triplicate
Excerpt: as §1

pulp cells (HPC) = assay: Cytotoxicity (MTT, 48 h) against HPC non-malignant cells; settings: mean ± S.D. of triplicate
Excerpt: as §1

HGF, HPLF, and HPC cells = assay: Average cytotoxicity over the three non-malignant cells
Excerpt: as §1

Ca9-22 cells = assay: Cell cycle assay in Ca9-22 cells; settings: 20 h
Protocol: The evaluation of varying quantities of 1d,e,k on the cell cycle in Ca9-22 cells was undertaken by a literature method. In brief, Ca9-22 cells were treated for 20 h without (control) or with the indicated concentrations of the test samples. To neglect the cytotoxicity effect of DMSO, all samples contained 0.1% DMSO. Cells (approximately 10^6 cells) were harvested, fixed for 1 h on ice with 1% paraformaldehyde, washed twice by phosphate-buffered saline, treated for 30 min at 37 °C with 0.2 mg/mL RNase A (ribonuclease A), stained for 15 min at room temperature with 0.01% propidium iodide in the presence of 0.01% NP-40 (nonyl phenoxypolyethoxyethanol) to prevent cell aggregation, filtered through Falcon® cell strainers (pore size: 40 µm) (Corning, NY, USA), subjected to cell sorting (SH800 Series; SONY Imaging Products and Solutions Inc., Kanagawa, Japan), and then analyzed with Cell Sorter Software version 2.1.2. (SONY Imaging Products and Solutions Inc., Kanagawa, Japan).

[12] = Homo sapiens, HSC-2, 48 h, MTT, mean ± S.D. of triplicate
[13] = Homo sapiens, average over Ca9-22, HSC-2, HSC-3, HSC-4
[14] = 48 h, MTT, mean ± S.D. of triplicate
[15] = average over Ca9-22, HSC-2, HSC-3, HSC-4

Row | Structure (SMILES) | SI (Ca9-22) [1] | SI (HSC-2) [2] | SI (HSC-3) [3] | Average SI [8] | CC50 [1] [µM] | CC50 [2, 14] [µM] | CC50 [3] [µM] | CC50 [4] [µM] | SI (HSC-4) [4] | CC50 [10] [µM] | CC50 [11] [µM] | CC50 (pulp cells (HPC)) [µM] | CC50 [8, 15] [µM] | CC50 (HGF, HPLF, and HPC cells) [µM] | also measured
1 | O=c1[nH]cc(F)c(=O)[nH]1 [Compound 5-FU, 5-fluorouracil, reference compound] | >40.7 | >32.7 | >16.3 | >55.2 | – | – | – | – | – | – | – | – | – | – | CC50 ([1]; Homo sapiens, Ca9-22): 24.5 ± 12.3 µM; CC50 [2, 12]: 30.5 ± 7.1 µM; CC50 ([3]; Homo sapiens, HSC-3): 61.3 ± 9.8 µM; CC50 ([4]; Homo sapiens, HSC-4): 7.58 ± 0.5 µM; CC50 at 48 h [5]: > 1000 µM; CC50 at 48 h [6]: > 1000 µM; CC50 at 48 h [7]: > 987 µM; CC50 [8, 13]: 31 µM; CC50 at 48 h [9]: > 996 µM
2 | COc1cc(/C=C2\CN(C(=O)C(Cl)Cl)C/C(=C\c3cc(OC)c(OC)c(OC)c3)C2=O)cc(OC)c1OC [Compound 1h] | 11.9 | – | 6.26 | 22.0 | 0.72 ± 0.15 | 0.14 ± 0.01 | 1.37 ± 0.22 | 0.99 ± 0.39 | 8.67 | 4.7 ± 1.6 | 17 ± 5.1 | 4 ± 0.6 | 0.8 | 8.58 | –
3 | COc1ccc(/C=C2\CN(C(=O)C(Cl)Cl)C/C(=C\c3ccc(OC)c(OC)c3)C2=O)cc1OC [Compound 1g] | 36.8 | 23.8 | 14.5 | 23.9 | – | – | – | – | 20.3 | – | – | – | – | – | CC50 ([1]; Homo sapiens, Ca9-22): 0.11 ± 0.02 µM; CC50 [2, 12]: 0.17 ± 0.02 µM; CC50 ([3]; Homo sapiens, HSC-3): 0.28 ± 0.03 µM; CC50 ([4]; Homo sapiens, HSC-4): 0.2 ± 0.04 µM; CC50 at 48 h [5]: 8.13 ± 2.47 µM; CC50 at 48 h [6]: 2.83 ± 1.53 µM; CC50 at 48 h [7]: 1.19 ± 0.09 µM; CC50 [8, 13]: 0.19 µM; CC50 at 48 h [9]: 4.05 µM
4 | O=C1C(=Cc2ccc(F)c(F)c2)CN(C(=O)C(Cl)Cl)CC1=Cc1ccc(F)c(F)c1 [Compound 1c] | 20.0 | 9.00 | 5.14 | 10.8 | 0.09 ± 0.02 | 0.2 ± 0.02 | 0.35 ± 0.02 | 0.2 ± 0.01 | 9.00 | 2.21 ± 0.11 | 1.91 ± 0.08 | 1.28 ± 0.37 | 0.21 | 1.8 | –
5 | COc1ccc(/C=C2\CN(C(=O)C(Cl)Cl)C/C(=C\c3ccc(OC)cc3)C2=O)cc1 [Compound 1f] | 15.4 | 11.5 | 5.99 | 9.41 | 0.39 ± 0.02 | 0.52 ± 0.07 | 1 ± 0.16 | 1.26 ± 0.27 | 4.75 | 9.03 ± 0.76 | 5.33 ± 0.32 | 3.62 ± 0.07 | 0.79 | 5.99 | –
6 | COc1cccc2c1C(=O)c1c(O)c3c(c(O)c1C2=O)C[C@@](O)(C(=O)CO)C[C@@H]3O[C@H]1C[C@H](N)[C@H](O)[C@H](C)O1 [DXR, doxorubicin, reference compound] | >22.2 | >47.8 | >36.7 | >46.6 | – | – | – | – | >79.6 | – | – | – | – | – | CC50 ([1]; Homo sapiens, Ca9-22): 0.43 ± 0.04 µM; CC50 [2, 12]: 0.2 ± 0.02 µM; CC50 ([3]; Homo sapiens, HSC-3): 0.26 ± 0.21 µM; CC50 ([4]; Homo sapiens, HSC-4): 0.12 µM; CC50 at 48 h [5]: > 10 µM; CC50 at 48 h [6]: > 10 µM; CC50 at 48 h [7]: > 8.65 µM; CC50 [8, 13]: 0.25 µM; CC50 at 48 h [9]: > 9.55 µM
7 | O=C1C(=Cc2ccc(Cl)c(Cl)c2)CN(C(=O)C(Cl)Cl)CC1=Cc1ccc(Cl)c(Cl)c1 [Compound 1e] | 19.5 | 9.75 | 6.00 | 9.66 | 0.04 | 0.08 ± 0.01 | 0.13 ± 0.06 | 0.23 ± 0.01 | 3.39 | 1.04 ± 0.13 | 0.82 ± 0.1 | 0.49 | 0.12 | 0.78 | HSC-2 CC50 [2, 14]: double-digit nanomolar; subG1 population (Ca9-22 cells; 0.8 µM): slight increase; G2M cell population (Ca9-22 cells; 0.8 µM, p < 0.05): most prominent increase; effect on the cell cycle (Ca9-22 cells; 0.1, 0.2, and 0.4 µM): little effects
8 | Cc1ccc(C=C2CN(C(=O)C(Cl)Cl)CC(=Cc3ccc(C)cc3)C2=O)cc1 [Compound 1j] | 32.1 | 18.5 | 10.5 | 18.0 | 0.15 ± 0.03 | 0.26 ± 0.01 | 0.46 ± 0.04 | 0.45 ± 0.04 | 10.7 | 5.53 ± 0.31 | 5 ± 0.1 | 3.93 ± 0.65 | 0.33 | 4.82 | –
9 | O=C([O-])C(Cl)Cl.[Na+] [SDA, sodium dichloroacetate, reference compound] | – | – | – | – | > 200 | > 200 | > 200 | > 200 | – | > 200 | > 200 | > 200 | > 200 | > 200 | Average CC50 [8, 15]: little or no efficacy
10 | CN(C)c1ccc(C=C2CN(C(=O)C(Cl)Cl)CC(=Cc3ccc(N(C)C)cc3)C2=O)cc1 [Compound 1l] | 10.3 | 9.40 | 3.08 | 7.48 | 13.6 ± 2.7 | 14.9 ± 4.4 | 45.5 ± 7.6 | 19.6 ± 6.3 | 7.14 | 111 ± 27 | 188 ± 21 | 122 ± 69 | 23.4 | 140 | CC50 Average (non-malignant cells) (HGF, HPLF, and HPC cells): very low toxicity
11 | O=C1C(=Cc2ccccc2)CN(C(=O)C(Cl)Cl)CC1=Cc1ccccc1 [Compound 1a] | 9.64 | 6.05 | 3.14 | 6.42 | 0.42 ± 0.04 | 0.67 ± 0.06 | 1.29 ± 0.07 | 0.59 ± 0.12 | 6.86 | 5.9 ± 0.1 | 3.37 ± 0.42 | 2.88 ± 0.08 | 0.74 | 4.05 | –
12 | O=C1C(=Cc2ccc(F)cc2)CN(C(=O)C(Cl)Cl)CC1=Cc1ccc(F)cc1 [Compound 1b] | 19.8 | 8.72 | 4.96 | 10.0 | 0.11 ± 0.01 | 0.25 ± 0.02 | 0.44 ± 0.02 | 0.33 ± 0.07 | 6.61 | 2.97 ± 0.46 | 2.26 ± 0.11 | 1.3 ± 0.16 | 0.28 | 2.18 | –
13 | O=C1/C(=C/c2ccc3c(c2)OCO3)CN(C(=O)C(Cl)Cl)C/C1=C\c1ccc2c(c1)OCO2 [Compound 1i] | 25.1 | 11.9 | 5.77 | 12.3 | 0.17 ± 0.06 | 0.36 ± 0.01 | 0.74 ± 0.13 | 0.65 ± 0.17 | 6.57 | 5.67 ± 0.31 | 4.37 ± 0.85 | 2.78 ± 0.14 | 0.48 | 4.27 | –
